Article PMC6571133, “Capsazepine prolongation of the duration of lidocaine block of sensory transmission in mice may be mediated by modulation of HCN channel currents” (PeerJ, 2019)

Experiments:
mHCN2 (Mouse HCN2) = molecular target: T1, mHCN2 (Mouse HCN2) (Mus musculus, UniProt O88703); assay: whole-cell patch clamp of Ih in transfected HEK […] cells; format: cell-based
T1 sequence (O88703 1-863): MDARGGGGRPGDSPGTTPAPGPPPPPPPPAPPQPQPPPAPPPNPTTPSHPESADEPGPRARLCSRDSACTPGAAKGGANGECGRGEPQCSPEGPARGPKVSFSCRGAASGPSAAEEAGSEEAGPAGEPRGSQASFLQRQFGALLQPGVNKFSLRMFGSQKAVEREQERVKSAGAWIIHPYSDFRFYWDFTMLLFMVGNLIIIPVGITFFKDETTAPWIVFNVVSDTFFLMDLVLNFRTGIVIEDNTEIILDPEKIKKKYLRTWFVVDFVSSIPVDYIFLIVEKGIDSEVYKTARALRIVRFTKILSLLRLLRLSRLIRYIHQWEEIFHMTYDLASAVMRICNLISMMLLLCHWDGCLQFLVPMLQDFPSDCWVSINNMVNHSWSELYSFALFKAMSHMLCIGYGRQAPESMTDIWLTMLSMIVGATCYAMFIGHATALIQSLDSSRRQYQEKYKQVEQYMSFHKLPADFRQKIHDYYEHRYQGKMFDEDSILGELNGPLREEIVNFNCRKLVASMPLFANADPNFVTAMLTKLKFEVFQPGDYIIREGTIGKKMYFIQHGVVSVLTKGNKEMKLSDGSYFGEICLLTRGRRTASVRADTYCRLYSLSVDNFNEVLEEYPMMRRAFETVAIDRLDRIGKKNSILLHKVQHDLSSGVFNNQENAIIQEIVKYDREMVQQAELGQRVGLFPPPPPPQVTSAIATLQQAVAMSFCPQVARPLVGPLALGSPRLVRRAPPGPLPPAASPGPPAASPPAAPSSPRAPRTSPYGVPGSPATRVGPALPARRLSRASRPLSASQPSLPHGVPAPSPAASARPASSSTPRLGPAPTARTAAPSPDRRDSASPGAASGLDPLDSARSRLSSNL

mHCN1 (Mouse HCN1) = mHCN1 (Mouse HCN1) (Mus musculus, UniProt O88704); assay: as above; format: cell-based
Sequence of mHCN1 (Mouse HCN1) (O88704 whole entry): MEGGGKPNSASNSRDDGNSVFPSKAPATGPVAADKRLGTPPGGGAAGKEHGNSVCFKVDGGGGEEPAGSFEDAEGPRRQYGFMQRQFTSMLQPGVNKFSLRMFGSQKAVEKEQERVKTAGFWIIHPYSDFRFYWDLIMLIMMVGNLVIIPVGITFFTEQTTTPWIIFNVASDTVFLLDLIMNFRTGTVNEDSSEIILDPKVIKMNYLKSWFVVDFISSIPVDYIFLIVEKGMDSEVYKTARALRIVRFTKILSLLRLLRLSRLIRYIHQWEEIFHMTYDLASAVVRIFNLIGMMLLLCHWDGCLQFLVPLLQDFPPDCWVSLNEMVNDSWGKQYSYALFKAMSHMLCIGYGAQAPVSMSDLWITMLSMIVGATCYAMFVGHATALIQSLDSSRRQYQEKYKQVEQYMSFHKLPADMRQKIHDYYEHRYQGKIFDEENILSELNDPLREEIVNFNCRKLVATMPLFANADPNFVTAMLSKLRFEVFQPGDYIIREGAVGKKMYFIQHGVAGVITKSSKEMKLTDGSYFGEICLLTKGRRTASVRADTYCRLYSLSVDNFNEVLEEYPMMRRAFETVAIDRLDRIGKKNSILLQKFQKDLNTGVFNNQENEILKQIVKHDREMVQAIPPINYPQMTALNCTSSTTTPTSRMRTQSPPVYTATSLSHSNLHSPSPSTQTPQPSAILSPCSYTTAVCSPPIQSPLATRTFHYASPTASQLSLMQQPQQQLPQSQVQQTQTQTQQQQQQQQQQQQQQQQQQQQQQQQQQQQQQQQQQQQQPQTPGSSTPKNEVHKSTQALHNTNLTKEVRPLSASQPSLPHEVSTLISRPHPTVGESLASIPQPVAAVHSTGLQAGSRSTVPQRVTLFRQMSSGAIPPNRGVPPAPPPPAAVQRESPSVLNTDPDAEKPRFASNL

IC50 (mHCN2 (Mouse HCN2)): 9.6 ± 0.4 µM
IC50 (mHCN1 (Mouse HCN1)): 8.2 ± 0.3 µM
Structure (SMILES): Oc1cc2c(cc1O)CN(C(=S)NCCc1ccc(Cl)cc1)CCC2 [CPZ, Capsazepine]
